Test results from PMC6881533 (Journal of medicinal chemistry, 2019).
Where a chain is given by its changes, count along the chain named. pIC50, pKd: −log10 of the molar value.

Experiments:
[1] = target: T1, human CYP51 (Homo sapiens, UniProt Q16850); test: CYP51 inhibitor binding assay
T1 sequence (Q16850 1-509): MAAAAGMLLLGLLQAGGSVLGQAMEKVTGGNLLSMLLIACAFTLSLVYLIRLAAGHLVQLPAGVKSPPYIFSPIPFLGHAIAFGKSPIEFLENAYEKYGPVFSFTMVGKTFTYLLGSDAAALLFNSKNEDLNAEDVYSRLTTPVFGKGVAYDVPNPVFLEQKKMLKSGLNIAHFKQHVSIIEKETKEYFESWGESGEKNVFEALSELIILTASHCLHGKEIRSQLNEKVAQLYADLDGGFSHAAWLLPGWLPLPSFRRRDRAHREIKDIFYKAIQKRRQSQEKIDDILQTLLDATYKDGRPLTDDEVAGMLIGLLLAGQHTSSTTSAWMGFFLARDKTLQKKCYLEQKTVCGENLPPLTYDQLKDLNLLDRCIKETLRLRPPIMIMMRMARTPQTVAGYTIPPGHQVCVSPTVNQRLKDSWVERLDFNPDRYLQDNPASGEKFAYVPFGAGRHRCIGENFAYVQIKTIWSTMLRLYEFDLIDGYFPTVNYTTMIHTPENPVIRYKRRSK

[2] = quoted in legend of Figure 1, reference not given; cited from earlier work
[3] = target: T2, human CYP51 (WT) (Homo sapiens, UniProt Q16850); test: CYP51 activity assay, inhibition of lanosterol 14α-demethylation; type: biochemical; conditions: WT enzyme, 1 h reaction
T2 sequence (Q16850 1-509): T1 sequence (Q16850 1-509)

[4] = target: T3, T318I mutant of human CYP51 (Homo sapiens, UniProt Q16850, T324I); test: CYP51 activity assay, inhibition of the T318I mutant; type: biochemical
T3 sequence (Q16850 1-509 T324I): T1 sequence (Q16850 1-509) with T324I

[5] = target: T3, T318I mutant of human CYP51; test: CYP51 inhibitor binding assay, T318I mutant

## O=C(N[C@@H](Cn1ccnc1)c1ccc(-c2ccc(F)cc2)cc1F)c1ccc(-c2nnc(-c3ccccc3)o2)cc1 [VFV]
[1]; inhibitor-bound human CYP51, red shift from 417 nm
  Soret band maximum: 425 nm

## CC[C@@H]([C@H](C)O)n1ncn(-c2ccc(N3CCN(c4ccc(OC[C@@H]5CO[C@@](Cn6cncn6)(c6ccc(F)cc6F)C5)cc4)CC3)cc2)c1=O [posaconazole]
[2]
  log P: 5.5

## CCC(C)n1ncn(-c2ccc(N3CCN(c4ccc(OCC5COC(Cn6cncn6)(c6ccc(Cl)cc6Cl)O5)cc4)CC3)cc2)c1=O (stereo not drawn) [itraconazole]
[2]
  log P: 6.8

## C[C@@H](NCCCc1cccc(C(F)(F)F)c1)c1cccc2ccccc12 [cinacalcet]
[2]
  log P: 6.5

## O=C(N[C@@H](Cn1ccnc1)c1ccc(Cl)cc1Cl)c1ccc(-c2nnc(-c3ccccc3)o2)cc1 [VNI, (R)-N-(1-(2,4-dichlorophenyl)-2-(1 H-imidazol-1-yl)ethyl)-4-(5-phenyl-1,3,4-oxadiazol-2-yl)benzamide]
[1]
  pKd: 5.33
[3]
  inhibition of human CYP51 activity (in words): does not inhibit the WT human CYP51 at all
[4]
  pIC50: < 4.60
[5]
  pKd: 6.40
[5]; T318I vs WT enzyme
  increase of binding affinity for the mutant: approximately 12 fold
